Assay results: ChEMBL document CHEMBL1149623, “Identification of antibacterial and antiviral activities of novel fused 1,2,4-triazine esters” (2007)

How the values were obtained:
HEK293 [1] = assay: Cytotoxicity against human HEK293 cells at 100 ug/mL after 48 hrs by MTT assay; type: functional
HEK293 [2] = assay: Cytotoxicity against human HEK293 cells at 50 ug/mL after 72 hrs by MTT assay; type: functional
HEK293 [3] = assay: Cytotoxicity against human HEK293 cells at 10 ug/mL after 96 hrs by MTT assay; type: functional
[4] = Cytotoxicity against monkey GMK cells at 10 ug/mL after 24 hrs by MTT assay; type: functional, Chlorocebus aethiops
[5] = Cytotoxicity against monkey GMK cells at 2.5 ug/mL after 48 hrs by MTT assay; type: functional, Chlorocebus aethiops
HEK293 [6] = assay: Cytotoxicity against human HEK293 cells at 200 ug/mL after 24 hrs by MTT assay; type: functional
[7] = Cytotoxicity against monkey GMK cells at 100 ug/mL after 24 hrs by MTT assay; type: functional, Chlorocebus aethiops
HEK293 [8] = assay: Cytotoxicity against human HEK293 cells at 10 ug/mL after 48 hrs by MTT assay; type: functional
[9] = Cytotoxicity against monkey GMK cells at 5 ug/mL after 24 hrs by MTT assay; type: functional, Chlorocebus aethiops
HEK293 [10] = assay: Cytotoxicity against human HEK293 cells at 2.5 ug/mL after 24 hrs by MTT assay; type: functional
Echovirus E9 [11] = assay: Antiviral activity against Human echovirus 9 in GMK cells assessed as inhibition of virus titre at 100 ug/mL after 24 hrs by CPE method; type: functional; details: Enterovirus B
[12] = Cytotoxicity against monkey GMK cells at 50 ug/mL after 72 hrs by MTT assay; type: functional, Chlorocebus aethiops
HEK293 [13] = assay: Cytotoxicity against human HEK293 cells at 100 ug/mL after 72 hrs by MTT assay; type: functional
HEK293 [14] = assay: Cytotoxicity against human HEK293 cells at 50 ug/mL after 48 hrs by MTT assay; type: functional
HEK293 [15] = assay: Cytotoxicity against human HEK293 cells at 100 ug/mL after 96 hrs by MTT assay; type: functional
Escherichia coli = assay: Antibacterial activity against Escherichia coli ATCC 25922 at 100 mg/mL after 24 hrs by disc diffusion method; type: functional
Human adenovirus 5 [16] = assay: Antiviral activity against Human adenovirus 5 in HEK293 cells assessed as virus titre at 50 ug/mL after 1 hr; type: functional
Streptococcus pyogenes = assay: Antibacterial activity against Streptococcus pyogenes at 100 mg/mL after 24 hrs by disc diffusion method; type: functional
Human adenovirus 5 [17] = assay: Antiviral activity against Human adenovirus 5 in HEK293 cells assessed as inhibition of virus titre at 200 ug/mL after 24 hrs by CPE method; type: functional; details: Human mastadenovirus C, HEK293, 24 h
[18] = Cytotoxicity against monkey GMK cells at 100 ug/mL after 96 hrs by MTT assay; type: functional, Chlorocebus aethiops
HEK293 [19] = assay: Cytotoxicity against human HEK293 cells at 5 ug/mL after 72 hrs by MTT assay; type: functional
[20] = system: Staphylococcus epidermidis; assay: Antibacterial activity against Staphylococcus epidermidis at 100 mg/mL after 24 hrs by disc diffusion method; type: functional
Staphylococcus aureus = assay: Antibacterial activity against Staphylococcus aureus ATCC 25923 at 100 mg/mL after 24 hrs by disc diffusion method; type: functional
[21] = Cytotoxicity against monkey GMK cells at 25 ug/mL after 120 hrs by MTT assay; type: functional, Chlorocebus aethiops
[22] = Cytotoxicity against monkey GMK cells at 200 ug/mL after 120 hrs by MTT assay; type: functional, Chlorocebus aethiops
Human adenovirus 5 [23] = assay: Antiviral activity against Human adenovirus 5 in HEK293 cells assessed as inhibition of virus titre at 50 ug/mL after 24 hrs by CPE method; type: functional; details: Human mastadenovirus C, HEK293, 24 h
Human adenovirus 5 [24] = assay: Antiviral activity against Human adenovirus 5 in HEK293 cells assessed as inhibition of virus titre at 100 ug/mL after 24 hrs by CPE method; type: functional; details: Human mastadenovirus C, HEK293, 24 h
Echovirus E9 [25] = assay: Antiviral activity against Human echovirus 9 in GMK cells assessed as inhibition of virus titre at 200 ug/mL after 24 hrs by CPE method; type: functional; details: Enterovirus B
Echovirus E9 [26] = assay: Antiviral activity against Human echovirus 9 in GMK cells assessed as inhibition of virus titre at 50 ug/mL after 24 hrs by CPE method; type: functional; details: Enterovirus B

SMILES	Activity (HEK293 [1]) [%]	Activity (HEK293 [2]) [%]	Activity (HEK293 [3]) [%]	Activity [4] [%]	Activity [5] [%]	Activity (HEK293 [6]) [%]	Activity [7] [%]	Activity (HEK293 [8]) [%]	Activity [9] [%]	Activity (HEK293 [10]) [%]	Activity [12] [%]	Activity (HEK293 [13]) [%]	Activity (HEK293 [14]) [%]	Activity (HEK293 [15]) [%]	Inhibition (Escherichia coli) [mm]	TCID50 (Human adenovirus 5 [16]) [mL⁻¹]	Activity [18] [%]	Activity (HEK293 [19]) [%]	Activity [21] [%]	Activity [22] [%]	also measured
COC(=O)CC1NN=C2N(CCN2c2cccc(Cl)c2)C1=O (configuration not stated)	50	95	100	100	100	98	80	100	100	100	95	55	95	50	>20	3.5	0	100	95	0	inhibition at 100 µg/mL (Echovirus E9 [11]): 9.9%; Inhibition (Streptococcus pyogenes): 10 mm; inhibition at 200 µg/mL (Human adenovirus 5 [17]): 8%; Inhibition [20]: 16 mm; Inhibition (Staphylococcus aureus): 16 mm
CCOC(=O)CC1NN=C2N(CCN2c2ccc(C)cc2)C1=O (configuration not stated)	80	80	100	100	100	30	90	100	100	100	80	70	80	70	–	2.5	70	100	70	0	inhibition at 50 µg/mL (Human adenovirus 5 [23]): 23%; inhibition at 100 µg/mL (Human adenovirus 5 [24]): 23%; inhibition at 200 µg/mL (Human adenovirus 5 [17]): 23%
CCOC(=O)CC1NN=C2N(CCN2c2ccc(Cl)cc2)C1=O (configuration not stated)	90	100	100	100	100	50	100	100	100	100	100	70	100	70	10	3.5	100	100	100	95	inhibition at 200 µg/mL (Echovirus E9 [25]): 25%; inhibition at 50 µg/mL (Echovirus E9 [26]): 9.4%; Inhibition (Streptococcus pyogenes): >20 mm; Inhibition [20]: 16 mm; Inhibition (Staphylococcus aureus): <9 mm
